Results: ChEMBL document CHEMBL5149985, “Discovery of cytotoxic natural products from Red Sea sponges: Structure and synthesis” (Eur J Med Chem, 2021)
One block for each molecule: values may come before it.

Tests used:
HepG2 [1] = assay: cells; settings: Homo sapiens
Description: Anticancer activity against human HepG2 cells assessed as inhibition of cell growth by MTT assay

HCT-116 [2] = assay: Anticancer activity against human HCT-116 cells assessed as inhibition of cell growth incubated for 72 hrs by SRB assay; assay type: functional, cell-based; settings: HCT-116, 72 h
MCF7 [3] = assay: Anticancer activity against human MCF7 cells assessed as inhibition of cell growth incubated for 72 hrs by SRB assay; assay type: functional, cell-based; settings: MCF7, 72 h
HepG2 [4] = assay: Anticancer activity against human HepG2 cells assessed as inhibition of cell growth incubated for 72 hrs by SRB assay; assay type: functional, cell-based; settings: HepG2, 72 h
HeLa = assay: Anticancer activity against human HeLa cells assessed as inhibition of cell growth; assay type: functional, cell-based
KB 3-1 = assay: Anticancer activity against human KB 3-1 cells assessed as inhibition in cell growth; assay type: functional, cell-based
MDA-MB-231 [5] = assay: Anticancer activity against human MDA-MB-231 cells assessed as cell viability measured after 24 hrs by MTT assay; assay type: functional, cell-based; settings: MDA-MB-231, 24 h
[6] = Inhibition of actin (unknown origin) polymerization incubated for 20 mins in presence of ATP by ELISA analysis; set-up: species or system Homo sapiens
MDA-MB-231 [7] = assay: Anticancer activity against human MDA-MB-231 cells assessed as inhibition of cell growth incubated for 72 hrs by MTT assay; assay type: functional, cell-based; settings: MDA-MB-231, 72 h
[8] = Inhibition of actin (unknown origin) polymerization at 100 nM incubated for 20 mins in presence of ATP by ELISA analysis relative to control; settings: Homo sapiens
Homo sapiens = species on record: Homo sapiens; assay: Inhibition of actin (unknown origin) polymerization at 1 uM incubated for 20 mins in presence of ATP by ELISA analysis relative to control
MCF7 [9] = assay: Anticancer activity against human MCF7 cells assessed as inhibition of cell growth incubated for 72 hrs by MTT assay; assay type: functional, cell-based; settings: MCF7, 72 h
HCT-116 [10] = assay: cells; settings: Homo sapiens
Description: Anticancer activity against human HCT-116 cells assessed as inhibition of cell growth by MTT assay

A549 = assay: Anticancer activity against human A549 cells assessed as cell growth inhibition; assay type: functional, cell-based
HT-29 = assay: Anticancer activity against human HT-29 cells assessed as cell growth inhibition; assay type: functional, cell-based
P388 = assay: Anticancer activity against mouse P388 cells assessed as cell growth inhibition; assay type: functional, cell-based

IC50 (HepG2 [1]): 0.0042 µM
SMILES: CC[C@@]1(C)CCC[C@]2(C)[C@H]3C[C@H](OC(C)=O)[C@]4(C)CC(C(C)=O)=CC[C@H]4[C@]3(C)CC[C@@H]12

IC50 (HCT-116 [2]): 26.5 µM
IC50 (MCF7 [3]): 55.4 µM
IC50 (HepG2 [4]): 25.4 µM
SMILES: CO[C@H]1NC(=O)C2=C1[C@H](O)C[C@H]1[C@]3(C)CC[C@H]4C(C)(C)CCC[C@]4(C)[C@H]3C[C@@H](OC(C)=O)[C@]21C

IC50 (HeLa): 0.0178 µM
SMILES: NC(=O)C[C@@]1(O)C=C(Cl)C(=O)C(Br)=C1

IC50 (HCT-116 [2]): 14.4 µM
IC50 (MCF7 [3]): 30.7 µM
IC50 (HepG2 [4]): 17.3 µM
SMILES: CC(=O)O[C@@H]1C[C@@H]2[C@@]3(C)CCCC(C)(C)[C@@H]3CC[C@@]2(C)[C@@H]2CCC3=C(C(=O)OC3)[C@@]12C

IC50 (KB 3-1): 0.0042 µM
SMILES: CC(C)=CCC[C@@]1(C)C(CC[C@H]2[C@]3(C)CC[C@H](O)C(C)(C)O[C@H]3CC[C@@]2(C)O)=C(C)CC[C@H]1O [SIPHONELLINOL D]

IC50 (HCT-116 [2]): 15.4 µM
IC50 (MCF7 [3]): 20.9 µM
IC50 (HepG2 [4]): 15.5 µM
SMILES: CC(=O)O[C@@H]1C[C@@H]2[C@@]3(C)CCCC(C)(C)[C@@H]3CC[C@@]2(C)[C@@H]2CC=C3C(=O)OCC3[C@@]12C (stereo partly specified)

IC50 (KB 3-1): 0.0071 µM
SMILES: CC1=C(CC[C@H]2[C@]3(C)CC[C@H](O)C(C)(C)O[C@H]3CC[C@]2(C)O)[C@@H]2[C@H](CC1=O)[C@@](C)(O)CCC2(C)C [SIPHOLENOL K]

IC50 (MDA-MB-231 [5]): 43.4 µM
SMILES: CCSc1ccc(/C=C2\NC(=O)NC2=O)cc1

SMILES: CC1=C(CC[C@H]2[C@]3(C)CC[C@H](O)C(C)(C)O[C@H]3CC[C@@]2(C)O)[C@](C)(C/C=C/C(C)(C)OO)[C@H](O)CC1
IC50 (KB 3-1): 0.0039 µM

IC50 (HCT-116 [2]): 22.5 µM
IC50 (MCF7 [3]): 40.3 µM
IC50 (HepG2 [4]): 42.5 µM
SMILES: CO[C@H]1C[C@H]2[C@]3(C)CC[C@H]4C(C)(C)CCC[C@]4(C)[C@H]3C[C@@H](OC(C)=O)[C@]2(C)C2=C1[C@@H](O)OC2=O

SMILES: CO[C@]1([C@@H]2CSC(=O)N2C)C[C@H]2C[C@@H](CC[C@H](C)/C=C\C=C\CC/C(C)=C\C(=O)O2)O1
IC50 [6]: > 10 µM
IC50 (MDA-MB-231 [7]): 19.9 µM
inhibition [8]: 11%
inhibition (Homo sapiens): 19%

SMILES: CO[C@]1([C@@H]2CSC(=O)N2C2CCCC2)C[C@H]2C[C@@H](CC[C@H](C)/C=C\C=C\CC/C(C)=C\C(=O)O2)O1
IC50 [6]: 1.05 µM
IC50 (MDA-MB-231 [7]): 5.07 µM
inhibition [8]: 20%
IC50 (MCF7 [9]): 5.3 µM
inhibition (Homo sapiens): 49%

IC50 (MDA-MB-231 [5]): 18 µM
SMILES: COC1=C(Br)[C@H]2OC(=O)C[C@]2(O)C=C1Br

IC50 (HCT-116 [10]): 0.0018 µM
IC50 (HepG2 [1]): 0.0044 µM
SMILES: CC(=O)O[C@H]1C[C@H]2[C@@](C)(CC[C@H]3C(C)(C)CCC[C@]23C)[C@@H]2CC=C(C(C)=O)C[C@]21C

IC50 (HCT-116 [2]): 27.1 µM
IC50 (MCF7 [3]): 36 µM
IC50 (HepG2 [4]): 23.4 µM
SMILES: CC1(C)CCC[C@]2(C)[C@H]3C[C@@H](O)[C@]4(C)[C@@H](C=O)C(C=O)=CC[C@H]4[C@]3(C)CC[C@@H]12

SMILES: CC(=O)CCCC(C)(C)C(=O)CC/C(C)=C/CC[C@@]1(C)CC[C@H]([C@H](C)C(=O)O)OO1 [AIKUPIKOXIDE A]
IC50 (A549): ≥ 1 µg/mL
IC50 (HT-29): ≥ 1 µg/mL
IC50 (P388): ≥ 1 µg/mL

SMILES: C/C1=C/C(=O)O[C@@H]2C[C@@H](CC[C@H](C)/C=C\C=C\CC1)O[C@@](OC(=O)c1ccccc1)([C@@H]1CSC(=O)N1)C2
IC50 [6]: 0.466 µM
IC50 (MDA-MB-231 [7]): 5.05 µM
inhibition [8]: 23%
IC50 (MCF7 [9]): 0.52 µM
inhibition (Homo sapiens): 67%

IC50 (KB 3-1): 0.0047 µM
SMILES: C[C@@H]1CC[C@H]2[C@@H](/C1=C/C[C@H]1[C@]3(C)CCC(=O)C(C)(C)O[C@H]3CC[C@]1(C)O)C(C)(C)CC[C@]2(C)O

IC50 (P388): 0.0067 µM
SMILES: NC(=O)Cc1cc(Br)c(O)c(Br)c1O

SMILES: CCN1C(=O)SC[C@H]1[C@@]1(O)C[C@H]2C[C@@H](CC[C@H](C)/C=C\C=C\CC/C(C)=C\C(=O)O2)O1
IC50 [6]: 0.283 µM
IC50 (MDA-MB-231 [7]): 7.19 µM
inhibition [8]: 31%
IC50 (MCF7 [9]): 0.95 µM
inhibition (Homo sapiens): 70%

SMILES: C/C1=C/C(=O)O[C@@H]2C[C@@H](CC[C@H](C)/C=C\C=C\CC1)O[C@@](O)([C@@H]1CSC(=O)N1Cc1ccccc1)C2
IC50 [6]: 0.445 µM
IC50 (MDA-MB-231 [7]): 2.72 µM
inhibition [8]: 24%
IC50 (MCF7 [9]): 0.63 µM
inhibition (Homo sapiens): 64%

IC50 (HCT-116 [2]): 3.5 µM
IC50 (MCF7 [3]): 12.7 µM
IC50 (HepG2 [4]): 9.6 µM
SMILES: CC(=O)O[C@H]1C[C@H]2[C@]3(C)CC[C@H]4C(C)(C)CCC[C@]4(C)[C@H]3C[C@@H](O)[C@]2(C)C2=C1C(O)OC2=O (stereo partly specified)
